Like-named read-outs stand apart in the source and are kept apart here.
Legend:
F-2 = format: biochemical, NK-1148 strain
Procedure: (§1) The results of measuring enzyme activities of the enzymes of this invention (F-1, F-2 and F-3) after adding each of various substances are as follows.
(§2) 20 μl of the enzyme of this invention is made to react with a reaction solution consisting of 10 μl of a 10 mM syringylglycerol-β-syringylether solution which contains a small amount of dioxane and 720 μl of a 50 mM acetate buffer solution (pH 5.0) and increases of absorbance at 300 nm are measured.
(§3) Enzyme activity producing a 0.01 increase of absorbance during one minute is supposed to be one unit.

F-1 = format: biochemical, NK-1148 strain
Procedure: as §1, §2, §3

F-3 = format: biochemical, NK-1148 strain
Procedure: as §1, §2, §3

[1] = test system: NK-1148 strain (FERM BP-1859); assay: Effect of lignin-related substances on the enzyme production; format: cell-based; settings: 0.2% of substance added after 7 days culture, further cultured at 28° C. for one day
Procedure: as §2, §3
After 100 ml of a medium of the same composition as that used in Example 3 was placed in a 500 ml Erlenmeyer flask and sterilized at 120° C. for 15 minutes, NK-1148 strain (FERM BP-1859) was inoculated into the medium and cultured at 28° C. for 7 days.

[2] = substance added at 0.5 mM, no addition = 100%
[3] = substance added at 1 mM, no addition = 100%

Compound	Relative Activity F-2 (F-2; [3]) [%]	Relative Activity F-1 (F-1; [3]) [%]	Relative Activity F-3 (F-3; [3]) [%]	also measured
[Cl][Fe]([Cl])[Cl] [FeCl3]	–	–	–	Relative Activity F-2 (F-2; [2]): 31%; Relative Activity F-1 (F-1; [2]): 15%; Relative Activity F-3 (F-3; [2]): 25%
[Ca+2].[Cl-].[Cl-] [CaCl2]	95	94	95	–
[Cl-].[Cl-].[Co+2] [CoCl2]	94	97	96	–
COc1ccc(CO)cc1OC [Veratryl alcohol, veratryl alcohol]	–	–	–	Enzymatic activity [1]: 0.05 Unit/ml
[Cl][Al]([Cl])[Cl] [AlCl3]	65	61	65	–
[N-]=[N+]=[N-].[Na+] [NaN3]	23	14	20	–
[Cl][Cu][Cl] [CuCl2]	92	102	100	–
COc1cc(CO)ccc1O [Vanillyl alcohol, vanillyl alcohol]	–	–	–	Enzymatic activity [1]: 3.95 Unit/ml
N[C@@H](CS)C(=O)O [Cysteine]	21	11	13	–
OCCS [2-Mercapto-ethanol]	19	10	15	–
CCCCCCCCCCCCOS(=O)(=O)[O-].[Na+] [SDS, sodium dodecyl sulfate]	101	106	103	–
[Cl][Hg][Cl] [HgCl2]	21	11	18	–
[Ba+2].[Cl-].[Cl-] [BaCl2]	95	93	95	–
OCc1ccccc1 [Benzyl alcohol, benzyl alcohol]	–	–	–	Enzymatic activity [1]: 0.01 Unit/ml
[Cl-].[Cl-].[Mg+2] [MgCl2]	94	94	95	–
COc1cc(CO)cc(OC)c1O [Syringyl alcohol, syringyl alcohol]	–	–	–	Enzymatic activity [1]: 4.0 Unit/ml
[Cl-].[Cl-].[Zn+2] [ZnCl3]	93	94	94	–
[Cl][Mn][Cl] [MnCl2]	95	95	95	–
O=C(O)CN(CCN(CC(=O)O)CC(=O)O)CC(=O)O [EDTA]	–	–	–	Relative Activity F-2 (F-2; pH 5, 1000 µM): 102; Relative Activity F-1 (F-1; pH 5, 1000 µM): 98; Relative Activity F-3 (F-3; pH 5, 1000 µM): 101
COc1cc(C(O)C(CO)Oc2c(OC)cccc2OC)cc(OC)c1O (stereo not drawn) [Syringylglycerol-β-syringylether, syringylglycerol-β-syringylether]	–	–	–	Enzymatic activity [1]: 3.9 Unit/ml
